The structures appear in SMILES notation. ± gives the expanded uncertainty stated by the source.

The source of these data is the NIST ThermoML archive (doi:10.1016/j.jct.2008.12.005).

The nature of this series: activity coefficient (dimensionless); of the first substance listed, at infinite dilution; xn = mol fraction of the nth substance listed. The conditions noted are these: 101 kPa, Liquid, Chromatography, x1 = 0.

Regarding `CCCCO` [butan-1-ol] + CC[S+](CC)CC.O=S(=O)([N-]S(=O)(=O)C(F)(F)F)C(F)(F)F, the activity coefficient runs as follows: (308.15 K) 3.32 ± 0.23; (318.15 K) 2.96 ± 0.2; (328.15 K) 2.66 ± 0.18; (338.15 K) 2.41 ± 0.16; (348.15 K) 2.2 ± 0.15; (358.15 K) 2 ± 0.14. In addition, the activity coefficient (368.15 K) stood at 1.84 ± 0.12.

For the compound `C=CCCC` [1-pentene] + CC[S+](CC)CC.O=S(=O)([N-]S(=O)(=O)C(F)(F)F)C(F)(F)F, the activity coefficient is, setting by setting: (298.15 K) 8.81 ± 0.6; (308.15 K) 8.41 ± 0.57; (318.15 K) 8.06 ± 0.55; (328.15 K) 7.72 ± 0.53; (338.15 K) 7.4 ± 0.5; (348.15 K) 7.17 ± 0.49. The activity coefficient amounted to 6.89 ± 0.47 (358.15 K) and 6.69 ± 0.46 (368.15 K).

Take `O` [water] + CC[S+](CC)CC.O=S(=O)([N-]S(=O)(=O)C(F)(F)F)C(F)(F)F: the activity coefficient was 3.91 ± 0.27 (308.15 K); 3.39 ± 0.23 (318.15 K); 2.97 ± 0.2 (328.15 K); 2.63 ± 0.18 (338.15 K); 2.33 ± 0.16 (348.15 K); 2.08 ± 0.14 (358.15 K). Also, the activity coefficient (368.15 K) is 1.88 ± 0.13.

As for `CCCCCCCCCC` [decane] + CC[S+](CC)CC.O=S(=O)([N-]S(=O)(=O)C(F)(F)F)C(F)(F)F, the activity coefficient stood at 131 ± 9 (298.15 K); 114 ± 8 (308.15 K); 101 ± 7 (318.15 K); 89.6 ± 6.1 (328.15 K); 80 ± 5.5 (338.15 K); 72.5 ± 5 (348.15 K). Besides, the activity coefficient (358.15 K) came to 65.8 ± 4.5 and the activity coefficient (368.15 K) amounted to 59.7 ± 4.1.

As for `COC(C)(C)C` [2-methoxy-2-methylpropane] + CC[S+](CC)CC.O=S(=O)([N-]S(=O)(=O)C(F)(F)F)C(F)(F)F, the activity coefficient is 2.92 ± 0.2 (298.15 K); 2.94 ± 0.2 (308.15 K); 2.96 ± 0.2 (318.15 K); 2.98 ± 0.2 (328.15 K); 3 ± 0.2 (338.15 K); 3.02 ± 0.21 (348.15 K). Besides, the activity coefficient runs as follows: (358.15 K) 3.03 ± 0.21; (368.15 K) 3.05 ± 0.21.

`C1CCCCCC1` [cycloheptane] + CC[S+](CC)CC.O=S(=O)([N-]S(=O)(=O)C(F)(F)F)C(F)(F)F: the activity coefficient reads like this: (298.15 K) 21.7 ± 1.5; (308.15 K) 19.8 ± 1.4; (318.15 K) 18 ± 1.2; (328.15 K) 16.5 ± 1.1; (338.15 K) 15.2 ± 1; (348.15 K) 14.1 ± 1. Further, the activity coefficient was found to be 13.1 ± 0.9 (358.15 K) and 12.2 ± 0.8 (368.15 K).

Regarding `C1CCCC1` [cyclopentane] + CC[S+](CC)CC.O=S(=O)([N-]S(=O)(=O)C(F)(F)F)C(F)(F)F, the activity coefficient was found to be 10.8 ± 0.7 (298.15 K); 10.1 ± 0.7 (308.15 K); 9.31 ± 0.64 (318.15 K); 8.72 ± 0.59 (328.15 K); 8.17 ± 0.56 (338.15 K); 7.7 ± 0.53 (348.15 K). Further, the activity coefficient reads like this: (358.15 K) 7.29 ± 0.5; (368.15 K) 6.94 ± 0.47.

Turning to `C1CCCCC1` [cyclohexane] + CC[S+](CC)CC.O=S(=O)([N-]S(=O)(=O)C(F)(F)F)C(F)(F)F, the activity coefficient by setting is: (298.15 K) 16.1 ± 1.1; (308.15 K) 14.7 ± 1; (318.15 K) 13.5 ± 0.9; (328.15 K) 12.4 ± 0.8; (338.15 K) 11.6 ± 0.8; (348.15 K) 10.7 ± 0.7. For the same compound, the activity coefficient is 10 ± 0.7 (358.15 K) and 9.43 ± 0.64 (368.15 K).

For the compound `c1ccsc1` [thiophene] + CC[S+](CC)CC.O=S(=O)([N-]S(=O)(=O)C(F)(F)F)C(F)(F)F, the activity coefficient was 0.926 ± 0.059 (298.15 K); 0.935 ± 0.059 (308.15 K); 0.943 ± 0.059 (318.15 K); 0.951 ± 0.06 (328.15 K); 0.958 ± 0.06 (338.15 K); 0.965 ± 0.061 (348.15 K). The activity coefficient (358.15 K) was found to be 0.971 ± 0.061 and the activity coefficient (368.15 K) was 0.977 ± 0.061.

In the case of `CCCCCC` [hexane] + CC[S+](CC)CC.O=S(=O)([N-]S(=O)(=O)C(F)(F)F)C(F)(F)F, the activity coefficient (298.15 K) was found to be 28.6 ± 2; the activity coefficient (308.15 K) turned out to be 26.2 ± 1.8; the activity coefficient (318.15 K) was 24 ± 1.6; the activity coefficient (328.15 K) came to 22.1 ± 1.5; the activity coefficient (338.15 K) worked out at 20.7 ± 1.4; the activity coefficient (348.15 K) amounted to 19.2 ± 1.3. Besides, the activity coefficient by setting is: (358.15 K) 18 ± 1.2; (368.15 K) 16.9 ± 1.2.

For `Cc1ccccc1` [toluene] + CC[S+](CC)CC.O=S(=O)([N-]S(=O)(=O)C(F)(F)F)C(F)(F)F, the activity coefficient by setting is: (298.15 K) 1.54 ± 0.1; (308.15 K) 1.56 ± 0.1; (318.15 K) 1.58 ± 0.1; (328.15 K) 1.6 ± 0.11; (338.15 K) 1.62 ± 0.11; (348.15 K) 1.63 ± 0.11. Further, the activity coefficient runs as follows: (358.15 K) 1.65 ± 0.11; (368.15 K) 1.66 ± 0.11.

On to `C=CCCCCC` [1-heptene] + CC[S+](CC)CC.O=S(=O)([N-]S(=O)(=O)C(F)(F)F)C(F)(F)F, for which the activity coefficient (298.15 K) worked out at 18.3 ± 1.3; the activity coefficient (308.15 K) worked out at 17.2 ± 1.2; the activity coefficient (318.15 K) was 16.1 ± 1.1; the activity coefficient (328.15 K) amounted to 15.2 ± 1; the activity coefficient (338.15 K) was determined as 14.4 ± 1; the activity coefficient (348.15 K) was found to be 13.7 ± 0.9. Besides, the activity coefficient was 12.9 ± 0.9 (358.15 K) and 12.4 ± 0.8 (368.15 K).

Take `CCCCCCC` [heptane] + CC[S+](CC)CC.O=S(=O)([N-]S(=O)(=O)C(F)(F)F)C(F)(F)F: the activity coefficient came to 40.4 ± 2.8 (298.15 K); 36.9 ± 2.5 (308.15 K); 33.5 ± 2.3 (318.15 K); 30.5 ± 2.1 (328.15 K); 28.1 ± 1.9 (338.15 K); 26 ± 1.8 (348.15 K). The activity coefficient by setting is: (358.15 K) 24.1 ± 1.6; (368.15 K) 22.5 ± 1.5.

With `Cc1ccc(C)cc1` [1,4-dimethylbenzene] + CC[S+](CC)CC.O=S(=O)([N-]S(=O)(=O)C(F)(F)F)C(F)(F)F, the activity coefficient reads like this: (308.15 K) 2.27 ± 0.15; (318.15 K) 2.3 ± 0.16; (328.15 K) 2.32 ± 0.16; (338.15 K) 2.34 ± 0.16; (348.15 K) 2.36 ± 0.16; (358.15 K) 2.38 ± 0.16. In addition, the activity coefficient (368.15 K) worked out at 2.4 ± 0.16.

Turning to `CCCCCCCC` [octane] + CC[S+](CC)CC.O=S(=O)([N-]S(=O)(=O)C(F)(F)F)C(F)(F)F, the activity coefficient turned out to be 59.6 ± 4.1 (298.15 K); 53.3 ± 3.7 (308.15 K); 47.9 ± 3.3 (318.15 K); 43.6 ± 3 (328.15 K); 39.6 ± 2.7 (338.15 K); 36.3 ± 2.5 (348.15 K). Moreover, the activity coefficient by setting is: (358.15 K) 33.5 ± 2.3; (368.15 K) 30.8 ± 2.1.

`CCCO` [propan-1-ol] + CC[S+](CC)CC.O=S(=O)([N-]S(=O)(=O)C(F)(F)F)C(F)(F)F: the activity coefficient was determined as 2.49 ± 0.17 (308.15 K); 2.24 ± 0.15 (318.15 K); 2.04 ± 0.14 (328.15 K); 1.85 ± 0.12 (338.15 K); 1.7 ± 0.11 (348.15 K); 1.57 ± 0.1 (358.15 K). Moreover, the activity coefficient (368.15 K) is 1.46 ± 0.1.

As to `CO` [methanol] + CC[S+](CC)CC.O=S(=O)([N-]S(=O)(=O)C(F)(F)F)C(F)(F)F, the activity coefficient stood at 1.62 ± 0.11 (298.15 K); 1.48 ± 0.1 (308.15 K); 1.35 ± 0.09 (318.15 K); 1.25 ± 0.08 (328.15 K); 1.15 ± 0.07 (338.15 K); 1.07 ± 0.07 (348.15 K). The activity coefficient is 1 ± 0.06 (358.15 K) and 0.935 ± 0.059 (368.15 K).

Regarding `CCCCCCCCC` [nonane] + CC[S+](CC)CC.O=S(=O)([N-]S(=O)(=O)C(F)(F)F)C(F)(F)F, the activity coefficient turned out to be 87.2 ± 6 (298.15 K); 77.6 ± 5.3 (308.15 K); 68.6 ± 4.7 (318.15 K); 61.8 ± 4.2 (328.15 K); 55.5 ± 3.8 (338.15 K); 50.5 ± 3.5 (348.15 K). The activity coefficient (358.15 K) was found to be 46 ± 3.1 and the activity coefficient (368.15 K) came out at 42.4 ± 2.9.

Take `C=CCCCCCC` [oct-1-ene] + CC[S+](CC)CC.O=S(=O)([N-]S(=O)(=O)C(F)(F)F)C(F)(F)F: the activity coefficient (298.15 K) came to 27 ± 1.8; the activity coefficient (308.15 K) is 25 ± 1.7; the activity coefficient (318.15 K) was determined as 23.2 ± 1.6; the activity coefficient (328.15 K) turned out to be 21.8 ± 1.5; the activity coefficient (338.15 K) came out at 20.4 ± 1.4; the activity coefficient (348.15 K) is 19.2 ± 1.3. Moreover, the activity coefficient was determined as 18.2 ± 1.2 (358.15 K) and 17.3 ± 1.2 (368.15 K).

On to `C#CCCCCCC` [1-octyne] + CC[S+](CC)CC.O=S(=O)([N-]S(=O)(=O)C(F)(F)F)C(F)(F)F, for which the activity coefficient is, setting by setting: (298.15 K) 7.87 ± 0.54; (308.15 K) 7.68 ± 0.52; (318.15 K) 7.51 ± 0.51; (328.15 K) 7.35 ± 0.5; (338.15 K) 7.2 ± 0.49; (348.15 K) 7.06 ± 0.48. Further, the activity coefficient reads like this: (358.15 K) 6.93 ± 0.47; (368.15 K) 6.81 ± 0.46.

Take `Cc1ccccc1C` [1,2-dimethylbenzene] + CC[S+](CC)CC.O=S(=O)([N-]S(=O)(=O)C(F)(F)F)C(F)(F)F: the activity coefficient came out at 2.05 ± 0.14 (308.15 K); 2.07 ± 0.14 (318.15 K); 2.09 ± 0.14 (328.15 K); 2.1 ± 0.14 (338.15 K); 2.12 ± 0.14 (348.15 K); 2.13 ± 0.14 (358.15 K). The activity coefficient (368.15 K) stood at 2.15 ± 0.15.
